The source made the active and inactive calls. The calls are words filed in the database; no cut-off is given here.
Experiments:
SK-N-BE(2)-M17 [1] = test: Cytotoxicity against human SK-N-BE(2)-M17 cells at 100 uM 24 hrs by LDH release assay; type: cell-based; details: sk-n-be(2)-m17, 24 h
SK-N-BE(2)-M17 [2] = test: Cytoprotection against H2O2-induced cell death in human SK-N-BE(2)-M17 cells assessed as increase in cell viability at 100 uM pretreated for 2 hrs followed by 1 mM H2O2 addition measured after 24 hrs by MTT assay; type: functional, cell-based
SK-N-BE(2)-M17 [3] = test: Cytoprotection against H2O2-induced cell death in human SK-N-BE(2)-M17 cells assessed as increase in cell viability at 100 uM treated 2 hrs post 0.8 mM H2O2 treatment measured after 24 hrs by MTT assay; type: functional, cell-based
Astrocyte = test: Cytoprotection against H2O2-induced cell death in BSO pretreated C57BL6/J mouse brain primary astrocytes assessed as increase in cell viability at 10 uM pretreated for 2 hrs followed by H2O2 addition measured after 24 hrs by MTT assay; type: functional, cell-based
SK-N-BE(2)-M17 [4] = test: Cytotoxicity against human SK-N-BE(2)-M17 cells at 100 uM 24 hrs by MTT assay; type: cell-based; details: sk-n-be(2)-m17, 24 h
SK-N-BE(2)-M17 [5] = test: Cytoprotection against PQ-induced cell death in human SK-N-BE(2)-M17 cells assessed as increase in cell viability at 100 uM treated 2 hrs post 2 mM PQ treatment measured after 24 hrs by LDH assay; type: functional, cell-based
SK-N-BE(2)-M17 [6] = test: Cytoprotection against PQ-induced cell death in human SK-N-BE(2)-M17 cells assessed as increase in cell viability at 100 uM pretreated for 2 hrs followed by 1 mM PQ addition measured after 24 hrs by MTT assay; type: functional, cell-based
SK-N-BE(2)-M17 [7] = test: Cytoprotection against PQ-induced cell death in human SK-N-BE(2)-M17 cells assessed as increase in cell viability at 100 uM treated 2 hrs post 2 mM PQ treatment measured after 24 hrs by MTT assay; type: functional, cell-based
SK-N-BE(2)-M17 [8] = test: Cytoprotection against H2O2-induced cell death in human SK-N-BE(2)-M17 cells assessed as increase in cell viability at 100 uM pretreated for 2 hrs followed by 1 mM H2O2 addition measured after 24 hrs by LDH assay; type: functional, cell-based
SK-N-BE(2)-M17 [9] = test: Cytoprotection against H2O2-induced cell death in human SK-N-BE(2)-M17 cells assessed as increase in cell viability at 100 uM treated 2 hrs post 0.8 mM H2O2 treatment measured after 24 hrs by LDH assay; type: functional, cell-based
[10] = Binding affinity to Fe3+ assessed as change in retention time for compound-Fe3+ complex by RP-HPLC analysis relative to free ligand
SK-N-BE(2)-M17 [11] = test: Cytoprotection against PQ-induced cell death in human SK-N-BE(2)-M17 cells assessed as increase in cell viability at 100 uM pretreated for 2 hrs followed by 1 mM PQ addition measured after 24 hrs by LDH assay; type: functional, cell-based
[12] = Octanol-water partition coefficient, log P of the compound at 1 mg by RP-HPLC analysis; type: physicochemical
[13] = Binding affinity to Fe3+ assessed as [M+H]+ adduct formation by LC-MS/MS analysis
[14] = Binding affinity to Fe3+ assessed as [M+2H]+ adduct formation by LC-MS/MS analysis
SK-N-BE(2)-M17 [15] = test: Cytoprotection against PQ-induced cell death in human SK-N-BE(2)-M17 cells assessed as increase in cell viability at 100 uM treated post 200 uM Fecl3 and 1 mM PQ treatment measured after 24 hrs by LDH assay; type: functional, cell-based
SK-N-BE(2)-M17 [16] = test: Cytoprotection against PQ-induced cell death in human SK-N-BE(2)-M17 cells assessed as increase in cell viability at 100 uM treated post 200 uM Fecl3 and 1 mM PQ treatment measured after 24 hrs by MTT assay; type: functional, cell-based

SMILES | Activity (SK-N-BE(2)-M17 [1]) | Activity (SK-N-BE(2)-M17 [2]) | Activity (SK-N-BE(2)-M17 [3]) | Activity (Astrocyte) | Activity (SK-N-BE(2)-M17 [4]) | Activity (SK-N-BE(2)-M17 [5]) | Activity (SK-N-BE(2)-M17 [6]) | Activity (SK-N-BE(2)-M17 [7]) | Activity (SK-N-BE(2)-M17 [8]) | Activity (SK-N-BE(2)-M17 [9]) | Retention time [10] | Activity (SK-N-BE(2)-M17 [11]) | logP [12] | Activity [13] | Activity [14] | Activity (SK-N-BE(2)-M17 [15]) | Activity (SK-N-BE(2)-M17 [16])
CC(=O)N(O)CCCCCNC(=O)CCC(=O)N(O)CCCCCNC(=O)CCC(=O)N(O)CCCCCNC(=O)C12CC3CC(CC(Br)(C3)C1)C2 | Non-Toxic | inactive | inactive | Active | Non-Toxic | inactive | inactive | inactive | inactive | inactive | 0.91 min | inactive | 1.9 | Active | Active |  | 
CC(=O)N(O)CCCCCNC(=O)CCC(=O)N(O)CCCCCNC(=O)CCC(=O)N(O)CCCCCNC(=O)[C@H]1C[C@H]2C=C[C@H]1C2 | Non-Toxic | Active | Active |  | Non-Toxic | Active | Active | Active | Active | Active | -0.52 to 0 min | Active | 0.5 to 1.4 | Active | Active | Active | Active
c1ccc2ccccc2c1 |  |  |  |  |  |  |  |  |  |  |  |  | 3.27 |  |  |  | 
CC(=O)N(O)CCCCCNC(=O)CCC(=O)N(O)CCCCCNC(=O)CCC(=O)N(O)CCCCCNC(=O)CC12CC3CC(CC(O)(C3)C1)C2 | Non-Toxic | Active |  |  | Non-Toxic |  | Active |  | Active |  | -0.52 min | Active | 0.15 | Active | Active |  | 
CC(=O)N(O)CCCCCNC(=O)CCC(=O)N(O)CCCCCNC(=O)CCC(=O)N(O)CCCCCNC(=O)C[C@H]1C[C@H]2CC[C@H]1C2 (relative stereo) | Non-Toxic | Active | Active |  | Non-Toxic | Active | Active | Active | Active | Active | 0.27 min | Active | 1.16 | Active | Active |  | 
CC(=O)N(O)CCCCCNC(=O)CCC(=O)N(O)CCCCCNC(=O)CCC(=O)N(O)CCCCCNC(=O)CC12CC3CC(CC(Br)(C3)C1)C2 | Non-Toxic | inactive | inactive |  | Non-Toxic | inactive | inactive | inactive | inactive | inactive | 1.09 min | inactive | 1.84 | Active | Active |  | 
c1ccc2c(c1)oc1ccccc12 [DIBENZOFURAN] |  |  |  |  |  |  |  |  |  |  |  |  | 3.76 |  |  |  | 
CC(=O)N(O)CCCCCNC(=O)CCC(=O)N(O)CCCCCNC(=O)CCC(=O)N(O)CCCCCNC(=O)[C@H]1C[C@H]2CC[C@H]1C2 (relative stereo) | Non-Toxic | Active | Active |  | Non-Toxic | Active | Active | Active | Active | Active | 0.08 min | Active | 0.55 | Active | Active | Active | Active
COC(=O)c1ccccc1C(=O)OC [DIMETHYL PHTHALATE] |  |  |  |  |  |  |  |  |  |  |  |  | 1.59 |  |  |  | 

Source: ChEMBL document CHEMBL4184139, “Adamantyl- and other polycyclic cage-based conjugates of desferrioxamine B (DFOB) for treating iron-mediated toxicity in cell models of Parkinson's disease” (Bioorg Med Chem Lett, 2017)
